Experimental data taken from patent US8846653B2, “Delta-tocotrienol treatment and prevention of pancreatic cancer” (University of South Florida, priority 2006, dated 2014).

Assays:
Assay type in all cases: cell-based, human
BXPC3 cells = assay: MTT assay of BXPC3 cultures, single 50 μM dose; conditions: BXPC3, 50 μM; for MTT assay result, av-blank: average minus blank
Procedure: (§1) BXPC3 cells were cultured in complete […] media containing 10% fetal bovine serum (FBS) and 1% penicillin-streptomycin, and 1% L-glutamine. BxPc-3 pancreatic cancer cells were cultured in complete RPMI media containing 10% fetal bovine serum (FBS), and 1% penicillin-streptomycin, 1% HEPES buffer, 1% sodium pyruvate and 1% L-glutamine HPDE6-C7 cells were cultured in serum-free keratinocyte SFM media. All cells were maintained at 37° C. in a humidified incubator with 5% CO2. The cells were treated with a single 50 μM dose of vehicle (vehicle only, may be a solvent), T3 alpha (alpha tocotrienol), T3 beta (beta tocotrienol), T3 gamma (gamma tocotrienol), T3 delta (delta tocotrienol), T alpha (alpha tocopherol), T beta (beta tocopherol), TS (tocopherol succinate), GG (geranylgeraniol), SA (succinic acid). A control (no treatment) culture was grown alongside the treatments for comparison. Cell viability was measured using MTT assay at preselect times of 48 or 120 hours after treatment.

[1] = test system: SW1990 pancreatic cancer cells; assay: MTS assay of SW1990 cultures, single 50 μM dose; conditions: SW1990, 50 μM
Procedure: SW1990 pancreatic cancer cells […] were cultured in complete DMEM media containing 10% fetal bovine serum (FBS) and 1% penicillin-streptomycin, and 1% L-glutamine. BxPc-3 pancreatic cancer cells were cultured in complete RPMI media containing 10% fetal bovine serum (FBS), and 1% penicillin-streptomycin, 1% HEPES buffer, 1% sodium pyruvate and 1% L-glutamine. HPDE6-C7 cells were cultured in serum-free keratinocyte SFM media. All cells were maintained at 37° C. in a humidified incubator with 5% CO2. The cells were treated with a single 50 μM dose of vehicle (ethanol extracted olive oil), T3 alpha (alpha tocotrienol), T3 beta (beta tocotrienol), T3 gamma (gamma tocotrienol), T3 delta (delta tocotrienol), T alpha (alpha tocopherol), T beta (beta tocopherol), TS (tocopherol succinate), GG (geranylgeraniol), SA (succinic acid). A control culture (i.e., only vehicle with no treatment) was grown alongside the treatments for comparison. Cell viability was measured using MTS assay at preselect times of 24, 48, or 72 hours after treatment.

MiaPaCa-2 cells = assay: MTS assay of MiaPaCa2 cultures, single 50 μM dose; conditions: MiaPaCa2, 50 μM
Procedure: as §1, with “MiaPaCa-2” for “BXPC3”, “Cell viability was measured using MTT assay at preselect times of 48 or 120 hours after treatment.” left out

O=C(O)CCC(=O)O [SA, succinic acid]
rel amt (relative value set to the control) (BXPC3 cells; 48 hours): 95 | MTT assay result, av-blank (BXPC3 cells; 48 hours): 0.218 | MTT assay result, av (average) (BXPC3 cells; 48 hours, average of 7 runs): 0.267 | MTT assay result, run 1 (BXPC3 cells; 48 hours): 0.273 | MTT assay result, run 2 (BXPC3 cells; 48 hours): 0.28 | MTT assay result, run 3 (BXPC3 cells; 48 hours): 0.271 | MTT assay result, run 4 (BXPC3 cells; 48 hours): 0.271 | MTT assay result, run 5 (BXPC3 cells; 48 hours): 0.254 | MTT assay result, run 6 (BXPC3 cells; 48 hours): 0.263 | MTT assay result, run 7 (BXPC3 cells; 48 hours): 0.255 | rel amt (relative value set to the control) (BXPC3 cells; 120 hours (5 days)): 74 | MTT assay result, av-blank (BXPC3 cells; 120 hours (5 days)): 0.428 | MTT assay result, av (BXPC3 cells; 120 hours (5 days), average of 7 runs): 0.483 | MTT assay result, run 1 (BXPC3 cells; 120 hours (5 days)): 0.456 | MTT assay result, run 2 (BXPC3 cells; 120 hours (5 days)): 0.471 | MTT assay result, run 3 (BXPC3 cells; 120 hours (5 days)): 0.497 | MTT assay result, run 4 (BXPC3 cells; 120 hours (5 days)): 0.487 | MTT assay result, run 5 (BXPC3 cells; 120 hours (5 days)): 0.493 | MTT assay result, run 6 (BXPC3 cells; 120 hours (5 days)): 0.48 | MTT assay result, run 7 (BXPC3 cells; 120 hours (5 days)): 0.494 | rel amnt (relative value set to the control) ([1]; 24 hours): 109 | MTS assay result, run 1 ([1]; 24 hours): 0.146 | MTS assay result, run 2 ([1]; 24 hours): 0.154 | MTS assay result, run 3 ([1]; 24 hours): 0.15 | MTS assay result, run 4 ([1]; 24 hours): 0.152 | MTS assay result, run 5 ([1]; 24 hours): 0.172 | MTS assay result, run 6 ([1]; 24 hours): 0.165 | MTS assay result, run 7 ([1]; 24 hours): 0.179 | MTS assay result, run 8 ([1]; 24 hours): 0.165 | MTS assay result, run 9 ([1]; 24 hours): 0.160 | rel amnt (relative value set to the control) ([1]; 48 hours): 105 | MTS assay result, run 1 ([1]; 48 hours): 0.122 | MTS assay result, run 2 ([1]; 48 hours): 0.149 | MTS assay result, run 3 ([1]; 48 hours): 0.17 | MTS assay result, run 4 ([1]; 48 hours): 0.138 | MTS assay result, run 5 ([1]; 48 hours): 0.177 | MTS assay result, run 6 ([1]; 48 hours): 0.159 | MTS assay result, run 7 ([1]; 48 hours): 0.18 | MTS assay result, run 8 ([1]; 48 hours): 0.178 | MTS assay result, run 9 ([1]; 48 hours): 0.159 | rel amnt (relative value set to the control) ([1]; 72 hours): 113 | MTS assay result, run 1 ([1]; 72 hours): 0.596 | MTS assay result, run 2 ([1]; 72 hours): 0.547 | MTS assay result, run 3 ([1]; 72 hours): 0.57 | MTS assay result, run 4 ([1]; 72 hours): 0.515 | MTS assay result, run 5 ([1]; 72 hours): 0.544 | MTS assay result, run 6 ([1]; 72 hours): 0.44 | MTS assay result, run 7 ([1]; 72 hours): 0.4 | MTS assay result, run 8 ([1]; 72 hours): 0.427 | MTS assay result, run 9 ([1]; 72 hours): 0.504 | rel amt (relative value set to the control) (MiaPaCa-2 cells; 24 hours): 105 | MTS assay result, run 1 (MiaPaCa-2 cells; 24 hours): 0.24 | MTS assay result, run 2 (MiaPaCa-2 cells; 24 hours): 0.248 | MTS assay result, run 3 (MiaPaCa-2 cells; 24 hours): 0.25 | MTS assay result, run 4 (MiaPaCa-2 cells; 24 hours): 0.245 | MTS assay result, run 5 (MiaPaCa-2 cells; 24 hours): 0.236 | MTS assay result, run 6 (MiaPaCa-2 cells; 24 hours): 0.219 | MTS assay result, run 7 (MiaPaCa-2 cells; 24 hours): 0.214 | MTS assay result, run 8 (MiaPaCa-2 cells; 24 hours): 0.204 | MTS assay result, run 9 (MiaPaCa-2 cells; 24 hours): 0.232 | rel amt (relative value set to the control) (MiaPaCa-2 cells; 48 hours): 90 | MTS assay result, run 1 (MiaPaCa-2 cells; 48 hours): 0.334 | MTS assay result, run 2 (MiaPaCa-2 cells; 48 hours): 0.335 | MTS assay result, run 3 (MiaPaCa-2 cells; 48 hours): 0.333 | MTS assay result, run 4 (MiaPaCa-2 cells; 48 hours): 0.304 | MTS assay result, run 5 (MiaPaCa-2 cells; 48 hours): 0.32 | MTS assay result, run 6 (MiaPaCa-2 cells; 48 hours): 0.294 | MTS assay result, run 7 (MiaPaCa-2 cells; 48 hours): 0.352 | MTS assay result, run 8 (MiaPaCa-2 cells; 48 hours): 0.348 | MTS assay result, run 9 (MiaPaCa-2 cells; 48 hours): 0.328 | rel amt (relative value set to the control) (MiaPaCa-2 cells; 72 hours): 114 | MTS assay result, run 1 (MiaPaCa-2 cells; 72 hours): 0.596 | MTS assay result, run 2 (MiaPaCa-2 cells; 72 hours): 0.547 | MTS assay result, run 3 (MiaPaCa-2 cells; 72 hours): 0.566 | MTS assay result, run 4 (MiaPaCa-2 cells; 72 hours): 0.515 | MTS assay result, run 5 (MiaPaCa-2 cells; 72 hours): 0.544 | MTS assay result, run 6 (MiaPaCa-2 cells; 72 hours): 0.44 | MTS assay result, run 7 (MiaPaCa-2 cells; 72 hours): 0.397 | MTS assay result, run 8 (MiaPaCa-2 cells; 72 hours): 0.427 | MTS assay result, run 9 (MiaPaCa-2 cells; 72 hours): 0.504
